# Laboratory results: US6506793B2, “Citral acetal” (Kao Corporation, priority 2000, dated 2003)
# Tested on: smell (isovaleric acid) of the socks
# Assay: Organoleptic evaluation of smell of socks after application onto a bare foot
# Assay type: in vivo, human
# Set-up: key: 5: Strong; 4: Slightly strong; 3: Moderate; 2: Slightly weak; 1: Weak; 0: Does not smell
# Settings: 2 g of 0.1% solution in ethanol on a bare foot; smell (isovaleric acid) of socks after 8 hours
# Excerpt: The present compounds 1 to 3 obtained in Examples 1 to 3, as well as commercial citral propylene glycol acetal (CITRAL PGA produced by Inoue Koryo Co., Ltd.) and citral hexylene glycol acetal (CITRAL HGA produced by Inoue Koryo Co., Ltd.) as comparative compounds, were used to prepare 0.1% solutions in ethanol respectively, and 2 g solution was applied onto a bare foot. 2 g ethanol (containing no test sample) was applied onto the other bare foot (blank), then socks were put on the feet respectively, and the extent of smell (isovaleric acid) of the socks after 8 hours was subjected to organoleptic evaluation by one skilled examiner in the following 6-level criteria.
row,Structure (SMILES),Strength of Smell
1,"CC(C)=CCCC(C)=CC1OC(C)CC(C)(C)O1 (centres unmarked) [CITRAL HGA, citral hexylene glycol acetal, reference compound]",5
2,"CC(C)=CCC/C(C)=C/C1OCC(C)O1 (centres unmarked) [CITRAL PGA, citral propylene glycol acetal, reference compound]",5
3,"CCCCCOCC1COC(C=C(C)CCC=C(C)C)O1 (centres unmarked) [Present Compound 1, citral pentyl glyceryl ether acetal]",2
4,"CCCCCCCCOCC1COC(C=C(C)CCC=C(C)C)O1 (centres unmarked) [Present Compound 2, citral n-octyl glyceryl ether acetal]",2
5,"CCCCC(CC)COCC1COC(C=C(C)CCC=C(C)C)O1 (centres unmarked) [Present Compound 3, citral 2-ethyl hexyl glyceryl ether acetal]",1
